From patent publication US11040036B2, “Pyruvate kinase activators for use in treating blood disorders” (Agios Pharmaceuticals, Inc., priority 2017, dated 2021)

Tests used:
PKR K410E = PKR K410E (Homo sapiens, UniProt P30613, K410E); assay: PKR mutant assay (AC50), PKR K410E; format: biochemical; settings: PKR K410E mutant enzyme
Description: (§1) Example 11. PKR Mutant Assay
(§2) PKR or PKR mutant enzyme solution was diluted into a reaction mix, which contains 1× buffer (100 mM KCl, 50 mM Tris pH 7.5, 5 mM MgCl2) as well as PEP (cont depends on enzyme), 180 μM NADH, 0.5 units LDH, 1 mM DTT, 0.03% BSA; final assay concentrations after 1.11 fold dilution are indicated.
(§3) 2 μL of test compound was added into wells first, and then 180 μL reaction mix was added.
(§4) Reactions mixture with test compound was assembled except for ADP, and plates were stored for 60 minutes at room temperature.
(§5) 20 uL ADP was added to start reaction at room temperature and reaction progress was measured as changes in absorbance at 340 nm wavelength at room temperature.
(§6) Test Compound Preparation:
(§7) Test compound stock was made at 100× concentration in 100% DMSO (10 mM)
(§8) 1 to 3 dilutions were made for 11 points (i.e. 50 μl of first concentration added to 100 μl 100% DMSO to yield 3.33 mM, 50 μl of this added to 100 μl DMSO to yield 1.11 mM, and so forth) • 1 to 100 dilution into assay (2 μl in 200 μl) yielded starting concentration of 100 μM, decreasing 3 fold for 11 points.
(§9) Assay Buffer: 100 mM KCl, 50 mM Tris 7.5, 5 mM MgCl2, 1 ruM DTT, 0.03% BSA
(§10) Reaction Mixture: PKR mutant enzyme: 40-400 ng/well; ADP: 0.2-1.65 mM; PEP: 0.1-0.5 mM; NADH:180 μM; LDH: 0.5 units (Sigma #59023); DTT: 1 mM; BSA: 0.03%.

PKR R510Q = PKR R510Q (Homo sapiens, UniProt P30613, R510Q); assay: PKR mutant assay (AC50), PKR R510Q; format: biochemical; settings: PKR R510Q mutant enzyme; read-out: PK R510Q AC50
PKR R510Q, sequence (P30613 whole entry R510Q): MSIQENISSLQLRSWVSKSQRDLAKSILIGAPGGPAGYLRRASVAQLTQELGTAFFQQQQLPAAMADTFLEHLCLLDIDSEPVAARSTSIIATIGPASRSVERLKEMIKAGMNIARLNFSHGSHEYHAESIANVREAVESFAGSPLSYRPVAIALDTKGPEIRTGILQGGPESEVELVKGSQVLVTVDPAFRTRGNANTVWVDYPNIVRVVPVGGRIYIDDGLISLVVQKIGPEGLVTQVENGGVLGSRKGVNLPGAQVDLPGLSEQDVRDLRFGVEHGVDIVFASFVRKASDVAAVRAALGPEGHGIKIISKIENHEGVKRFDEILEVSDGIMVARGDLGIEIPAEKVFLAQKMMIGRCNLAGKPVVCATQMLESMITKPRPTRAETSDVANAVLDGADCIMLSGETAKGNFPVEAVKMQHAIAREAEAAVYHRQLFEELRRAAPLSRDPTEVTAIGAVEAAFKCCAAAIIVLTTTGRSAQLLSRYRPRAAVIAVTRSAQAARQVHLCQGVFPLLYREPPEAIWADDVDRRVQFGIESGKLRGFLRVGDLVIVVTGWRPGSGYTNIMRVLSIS
Description: as §1, §2, §3, §4, §5, §6, §7, §8, §9, §10

wild type PKR [1] = molecular target: T1, wild type PKR (Homo sapiens, UniProt P30613); assay: PKR mutant assay (AC50), wild type PKR; format: biochemical; settings: wild type PKR enzyme; read-out: PKR WT AC50
T1 sequence (P30613 whole entry): as the sequence (P30613 whole entry R510Q) above, with Q510R counted along it
Description: as §1, §2, §3, §4, §5, §6, §7, §8, §9, §10

wild type PKR [2] = molecular target: T1, wild type PKR; assay: Cell based ATP assay in purified red blood cells; parameters: endogenous in cells; host or cells: purified red blood cells from blood of healthy volunteers; settings: RBCs, overnight at 37° C., ATP levels by Cell-Titer-Glo
Description: Example 16. Red Blood Cell (RBC) Purification
Fresh blood drawn from healthy volunteers into K2EDTA tubes was collected. Whole blood was pelleted by spinning at 500 g for 10 minutes. Cut transfusion bag port off of Purecell leukocyte reduction neofilter (Fisher NCO267633) one (1) inch above filter. Attach a 10 ml syringe barrel to the remaining cut tubing attached to neofilter. The plasma layer was removed from the pellet of the whole blood and the pellet was resuspended in 2× volume of phosphate buffered saline (PBS). Transfer 9 ml re-suspended blood cell pellet to prepared 10 ml syringe that is attached to the neofilter. Allow whole blood to gravity flow through filter until all fluid runs through upper tubing into filter disc. Add plunger to the syringe, remove syringe from clamp and invert the filter, then plunge air through the syringe filter system. Using a new 5 ml syringe, remove filtered RBCs from the bag by the syringe port and transfer purified RBCs to a 5 ml snap cap tube that has been incubated on ice. Spin 5 ml snap cap tube at 500 g for 10 minutes at 15 C, aspirate supernatant and resuspend in AGAM (1×PBS, 1% glucose, 170 mg/L adenine, 5.25 g/L mannitol) at a density of 4×10^9 cells/mL.
Example 17. Cell Based ATP Assay
For cell based ATP assays, the compound as described herein was prepared in 100% DMSO as a 10 mM stock. Serial dilutions (1:4) were performed in 96-well V-bottom storage plate and then added 1:100 to 96-well V-bottom plates containing AGAM. RBCs were diluted in AGAM media to a density of 1×10^7 cells/mL before added 90 μL/well to black clear bottom assay plates (final compound concentration at 0.1% DMSO concentration). Assay plates were sealed using aluminum foil seals and incubated overnight at 37° C. in a humidified chamber. ATP levels were read out using Cell-Titer-Glo (Promega).

PKR K410E, sequence (P30613 whole entry K410E): as the sequence (P30613 whole entry R510Q) above, with K410E, Q510R counted along it

Cn1c2nc(Cc3cc[nH]n3)sc2c2cnn(Cc3cocn3)c(=O)c21
AC50 (PKR K410E): < 300 nM
AC50 (PKR R510Q): < 300 nM
AC50 (wild type PKR [1]): < 300 nM
AC50 (wild type PKR [2]): ≤ 1000 nM

COc1c[nH]nc1Cn1ncc2c3sc(Cc4n[nH]cc4F)nc3n(C)c2c1=O
AC50 (PKR K410E): < 300 nM
AC50 (PKR R510Q): < 300 nM
AC50 (wild type PKR [1]): < 300 nM
AC50 (wild type PKR [2]): ≤ 1000 nM

Cn1c2nc(Cc3cc[nH]n3)sc2c2cnn(Cc3ccns3)c(=O)c21
AC50 (PKR K410E): < 300 nM
AC50 (PKR R510Q): < 300 nM
AC50 (wild type PKR [1]): < 300 nM
AC50 (wild type PKR [2]): ≤ 1000 nM

Cn1c2nc(C(=O)c3cc[nH]n3)sc2c2cnn(Cc3cc[nH]n3)c(=O)c21
AC50 (PKR K410E): > 800 nM
AC50 (PKR R510Q): 301 to 800 nM
AC50 (wild type PKR [1]): 301 to 800 nM
AC50 (wild type PKR [2]): ≤ 1000 nM

Cn1c2nc(Cc3ccccn3)sc2c2cnn(Cc3cc[nH]n3)c(=O)c21
AC50 (PKR K410E): < 300 nM
AC50 (PKR R510Q): < 300 nM
AC50 (wild type PKR [1]): < 300 nM
AC50 (wild type PKR [2]): ≤ 1000 nM

Cn1c2nc(Cn3cccn3)sc2c2cnn(Cc3cc[nH]n3)c(=O)c21
AC50 (PKR K410E): < 300 nM
AC50 (PKR R510Q): < 300 nM
AC50 (wild type PKR [1]): < 300 nM
AC50 (wild type PKR [2]): ≤ 1000 nM

Cn1c2nc(Cc3cscn3)sc2c2cnn(Cc3cccc(N)n3)c(=O)c21
AC50 (PKR K410E): < 300 nM
AC50 (PKR R510Q): < 300 nM
AC50 (wild type PKR [1]): < 300 nM
AC50 (wild type PKR [2]): ≤ 1000 nM

Cc1scnc1Cn1ncc2c3sc(Cc4cc[nH]n4)nc3n(C)c2c1=O
AC50 (PKR K410E): < 300 nM
AC50 (PKR R510Q): < 300 nM
AC50 (wild type PKR [1]): < 300 nM
AC50 (wild type PKR [2]): ≤ 1000 nM

Cn1c2nc(Cc3ccccn3)sc2c2cnn(Cc3ccccn3)c(=O)c21
AC50 (PKR K410E): < 300 nM
AC50 (PKR R510Q): 301 to 800 nM
AC50 (wild type PKR [1]): < 300 nM
AC50 (wild type PKR [2]): ≤ 1000 nM

COc1ccc(Cn2ncc3c4sc(Cc5cc[nH]n5)nc4n(C)c3c2=O)nc1N
AC50 (PKR K410E): < 300 nM
AC50 (PKR R510Q): < 300 nM
AC50 (wild type PKR [1]): < 300 nM
AC50 (wild type PKR [2]): ≤ 1000 nM

Cn1c2nc(Cc3cc[nH]n3)sc2c2cnn(Cc3ccn[nH]3)c(=O)c21
AC50 (PKR K410E): < 300 nM
AC50 (PKR R510Q): < 300 nM
AC50 (wild type PKR [1]): < 300 nM
AC50 (wild type PKR [2]): ≤ 1000 nM

Cc1scnc1Cc1nc2c(s1)c1cnn(Cc3c[nH]nn3)c(=O)c1n2C
AC50 (PKR K410E): < 300 nM
AC50 (PKR R510Q): < 300 nM
AC50 (wild type PKR [1]): < 300 nM
AC50 (wild type PKR [2]): ≤ 1000 nM

Cn1c2nc(Cc3cscn3)sc2c2cnn(Cc3cc[nH]n3)c(=O)c21
AC50 (PKR K410E): < 300 nM
AC50 (PKR R510Q): < 300 nM
AC50 (wild type PKR [1]): < 300 nM
AC50 (wild type PKR [2]): ≤ 1000 nM

Cn1ccc(Cn2ncc3c4sc(Cc5cccc(N)n5)nc4n(C)c3c2=O)n1
AC50 (PKR K410E): < 300 nM
AC50 (PKR R510Q): < 300 nM
AC50 (wild type PKR [1]): < 300 nM
AC50 (wild type PKR [2]): ≤ 1000 nM

CC(=O)Nc1ccc(F)c(Cn2ncc3c4sc(Cc5cc[nH]n5)nc4n(C)c3c2=O)n1
AC50 (PKR K410E): > 800 nM
AC50 (PKR R510Q): < 300 nM
AC50 (wild type PKR [1]): > 800 nM
AC50 (wild type PKR [2]): > 1000 nM

Cn1c2nc(Cc3cscn3)sc2c2cnn(Cc3csc(N)n3)c(=O)c21
AC50 (PKR K410E): < 300 nM
AC50 (PKR R510Q): < 300 nM
AC50 (wild type PKR [1]): < 300 nM
AC50 (wild type PKR [2]): ≤ 1000 nM

Cn1c2nc(Cc3csc(CO)n3)sc2c2cnn(Cc3cn[nH]n3)c(=O)c21
AC50 (PKR K410E): < 300 nM
AC50 (PKR R510Q): < 300 nM
AC50 (wild type PKR [1]): < 300 nM
AC50 (wild type PKR [2]): ≤ 1000 nM

Cn1c2nc(Cc3c[nH]cn3)sc2c2cnn(Cc3ncsc3Cl)c(=O)c21
AC50 (PKR K410E): < 300 nM
AC50 (PKR R510Q): < 300 nM
AC50 (wild type PKR [1]): < 300 nM
AC50 (wild type PKR [2]): ≤ 1000 nM

Cn1c2nc(Cc3cscn3)sc2c2cnn(Cc3cscn3)c(=O)c21
AC50 (PKR K410E): < 300 nM
AC50 (PKR R510Q): < 300 nM
AC50 (wild type PKR [1]): < 300 nM
AC50 (wild type PKR [2]): ≤ 1000 nM

Cn1c2nc(Cc3csc(CO)n3)sc2c2cnn(Cc3cccc(N)n3)c(=O)c21
AC50 (PKR K410E): < 300 nM
AC50 (PKR R510Q): < 300 nM
AC50 (wild type PKR [1]): < 300 nM
AC50 (wild type PKR [2]): ≤ 1000 nM

Cn1c2nc(Cc3cc[nH]n3)sc2c2cnn(Cc3ccc(=O)[nH]c3)c(=O)c21
AC50 (PKR K410E): < 300 nM
AC50 (PKR R510Q): < 300 nM
AC50 (wild type PKR [1]): < 300 nM
AC50 (wild type PKR [2]): ≤ 1000 nM

Cn1c2nc(Cc3cc[nH]n3)sc2c2cnn(Cc3csc(F)n3)c(=O)c21
AC50 (PKR K410E): < 300 nM
AC50 (PKR R510Q): < 300 nM
AC50 (wild type PKR [1]): < 300 nM
AC50 (wild type PKR [2]): ≤ 1000 nM

Cn1c2nc(Cc3ccccn3)sc2c2cnn(Cc3nccs3)c(=O)c21
AC50 (PKR K410E): < 300 nM
AC50 (PKR R510Q): < 300 nM
AC50 (wild type PKR [1]): < 300 nM
AC50 (wild type PKR [2]): ≤ 1000 nM

Cn1c2nc(Cc3c[nH]nn3)sc2c2cnn(Cc3cscn3)c(=O)c21
AC50 (PKR K410E): < 300 nM
AC50 (PKR R510Q): < 300 nM
AC50 (wild type PKR [1]): < 300 nM
AC50 (wild type PKR [2]): ≤ 1000 nM

Cn1c2nc(Cc3cc[nH]n3)sc2c2cnn(Cc3c[nH]c(N)n3)c(=O)c21
AC50 (PKR K410E): < 300 nM
AC50 (PKR R510Q): < 300 nM
AC50 (wild type PKR [1]): < 300 nM
AC50 (wild type PKR [2]): ≤ 1000 nM

Cn1c2nc(Cc3cc[nH]n3)sc2c2cnn(Cc3ncoc3Cl)c(=O)c21
AC50 (PKR K410E): < 300 nM
AC50 (PKR R510Q): < 300 nM
AC50 (wild type PKR [1]): < 300 nM
AC50 (wild type PKR [2]): ≤ 1000 nM

Cn1c2nc(Cc3ncsc3Cl)sc2c2cnn(Cc3cc[nH]n3)c(=O)c21
AC50 (PKR K410E): < 300 nM
AC50 (PKR R510Q): < 300 nM
AC50 (wild type PKR [1]): < 300 nM
AC50 (wild type PKR [2]): ≤ 1000 nM

Cn1c2nc(Cc3cc[nH]n3)sc2c2cnn(Cc3ccc(F)c(Br)n3)c(=O)c21
AC50 (PKR K410E): < 300 nM
AC50 (PKR R510Q): < 300 nM
AC50 (wild type PKR [1]): < 300 nM
AC50 (wild type PKR [2]): ≤ 1000 nM

Cn1c2nc(Cc3cc[nH]n3)sc2c2cnn(Cc3csc(Cl)n3)c(=O)c21
AC50 (PKR K410E): < 300 nM
AC50 (PKR R510Q): < 300 nM
AC50 (wild type PKR [1]): < 300 nM
AC50 (wild type PKR [2]): ≤ 1000 nM

COc1scnc1Cc1nc2c(s1)c1cnn(Cc3cc[nH]n3)c(=O)c1n2C
AC50 (PKR K410E): < 300 nM
AC50 (PKR R510Q): < 300 nM
AC50 (wild type PKR [1]): < 300 nM
AC50 (wild type PKR [2]): ≤ 1000 nM

Cn1c2nc(Cc3cc[nH]n3)sc2c2cnn(Cc3cccc(N)n3)c(=O)c21
AC50 (PKR K410E): < 300 nM
AC50 (PKR R510Q): < 300 nM
AC50 (wild type PKR [1]): < 300 nM
AC50 (wild type PKR [2]): ≤ 1000 nM

Cn1c2nc(Cc3cc[nH]n3)sc2c2cnn(Cc3cnsc3)c(=O)c21
AC50 (PKR K410E): < 300 nM
AC50 (PKR R510Q): < 300 nM
AC50 (wild type PKR [1]): < 300 nM
AC50 (wild type PKR [2]): ≤ 1000 nM

Cc1c[nH]nc1Cn1ncc2c3sc(Cc4n[nH]cc4F)nc3n(C)c2c1=O
AC50 (PKR K410E): < 300 nM
AC50 (PKR R510Q): < 300 nM
AC50 (wild type PKR [1]): < 300 nM
AC50 (wild type PKR [2]): ≤ 1000 nM
